According to PubChem BioAssay AID1033 (Sanford-Burnham Center for Chemical Genomics, 2008):
The source made the active and inactive calls. How the calls were made is not given here.

What follows are compounds tested against Chaperone protein DnaK (Escherichia coli (strain K12)) (UniProt P0A6Y8) (assay: binders of DnaK substrate-binding domain, biophysical, NMR, chaperone (AID 1033)). Conditions: Purified DnaK SBD, NMR ligand binding.
Chaperone protein DnaK (Escherichia coli (strain K12)), sequence (P0A6Y8 whole entry, looked up, the tested form may be a part): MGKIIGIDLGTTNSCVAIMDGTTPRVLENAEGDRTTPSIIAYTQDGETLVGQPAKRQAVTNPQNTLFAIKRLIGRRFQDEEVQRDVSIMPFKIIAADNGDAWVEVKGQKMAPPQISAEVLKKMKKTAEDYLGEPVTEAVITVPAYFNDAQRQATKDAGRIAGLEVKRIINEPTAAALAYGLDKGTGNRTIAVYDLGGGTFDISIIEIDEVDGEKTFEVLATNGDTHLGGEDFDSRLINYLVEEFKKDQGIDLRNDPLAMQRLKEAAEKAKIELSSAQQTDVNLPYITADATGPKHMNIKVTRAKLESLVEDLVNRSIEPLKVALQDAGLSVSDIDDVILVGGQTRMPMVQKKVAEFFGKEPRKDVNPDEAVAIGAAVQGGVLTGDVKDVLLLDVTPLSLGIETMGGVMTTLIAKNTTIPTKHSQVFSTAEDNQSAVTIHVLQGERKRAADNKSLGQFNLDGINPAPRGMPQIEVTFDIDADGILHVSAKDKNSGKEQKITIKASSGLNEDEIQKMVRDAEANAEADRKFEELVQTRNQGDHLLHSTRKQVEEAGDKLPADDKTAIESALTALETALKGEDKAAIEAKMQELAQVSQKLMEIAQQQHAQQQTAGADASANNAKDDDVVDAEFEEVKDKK
For CC1CCC2(OC1)OC1CC3C4CC[C@H]5C[C@@H](O)CC[C@]5(C)C4CC(=O)[C@]3(C)C1C2C (stereo partly drawn), the Kd was > 4 mM (inactive).
For Cc1ccc(=O)[nH]c1, the Kd was > 4 mM (inactive).
COc1ccc(NC(=O)C(N)=O)cc1Cl was tested, and the Kd was > 4 mM (inactive).
O=C(O)c1ccc(-n2cccn2)cc1 was tested, and the Kd was > 4 mM (inactive).
NCc1csc2ccccc12 was tested, and the Kd was > 4 mM (inactive).
C/C1=C\CCC(=O)C2CC(C)(C)C2CC1 (stereo not drawn) was tested, and the Kd was > 4 mM (inactive).
In the case of COc1ccc(/C=C2\SC(N)=NC2=O)cc1, the Kd is reported as > 4 mM (inactive).
In the case of CC(=O)Nc1ccc(Oc2nc(C)cc(C)n2)cc1, the Kd is reported as > 4 mM (inactive).
With Cc1ccc(NC(=O)N2CCC(C(N)=O)CC2)cc1 the Kd was > 4 mM (inactive).
In the case of COc1cc2c(c(OC)c1OC)-c1ccc(OC)c(=O)cc1[C@@H](NC(C)=O)CC2, the Kd is reported as > 4 mM (inactive).
Nc1nnc(-c2ccncc2)s1 was tested, and the Kd was > 4 mM (inactive).
Cc1cc2ncc(C(=O)Nc3ccccc3)c(C)n2n1 was tested, and the Kd was > 4 mM (inactive).
With Cc1ccnc(NS(=O)(=O)c2cccs2)c1 the Kd was > 4 mM (inactive).
In the case of CS(=O)(=O)CCCCN=C=S, the Kd is reported as > 4 mM (inactive).
COc1ccc(-c2ccc(SCC(N)=O)nn2)cc1 was tested, and the Kd was > 4 mM (inactive).
For Cc1cc(C)nc(Nc2n[nH]c(Cc3ccccc3)n2)n1, the Kd was > 4 mM (inactive).
In the case of O=C(NCc1cccs1)c1nc2ncccn2n1, the Kd is reported as “inactive”.
CCOC(=O)c1csc(C2COc3ccccc3O2)n1 (stereo not drawn) was tested, and the Kd was > 4 mM (inactive).
With Cc1c(-c2ccc(F)cc2)[n+](=O)c2c(n1[O-])CCC2 the Kd was > 4 mM (inactive).
O=c1[nH]cc(NCc2ccco2)c(=O)[nH]1 was tested, and the Kd was > 4 mM (inactive).
For O=C(O)CCCc1nc2ccccc2s1, the Kd was > 4 mM (inactive).
For CN1CCN(C(=O)c2ccccc2C(=O)O)CC1, the Kd was > 4 mM (inactive).
In the case of O=C(O)c1ccc(CN2CCOCC2)cc1, the Kd is reported as > 4 mM (inactive).
COC1=C(OC)C(=O)C(C/C=C(\C)CC/C=C(\C)CC/C=C(\C)CC/C=C(/C)CC/C=C(\C)CC/C=C(\C)CC/C=C(\C)CC/C=C(\C)CC/C=C(\C)CCC=C(C)C)=C(C)C1=O was tested, and the Kd was > 4 mM (inactive).
O=C(CC1SC(=O)NC1=O)Nc1ccccc1 (stereo not drawn) was tested, and the Kd was > 4 mM (inactive).
With O=C1CC2OCC=C3CN4CC[C@]56c7ccccc7N1C5[C@H]2[C@H]3CC46 (stereo partly drawn) the Kd was > 4 mM (inactive).
CNC(=S)Nc1ccc2c(c1)OCO2 was tested, and the Kd was > 4 mM (inactive).
In the case of CCOC(=O)C1CCC(=O)c2cccn21 (stereo not drawn), the Kd is reported as > 4 mM (inactive).
For CN1C2C[C@H](OC(=O)[C@H](CO)c3ccccc3)C[C@H]1[C@@H](O)C2, the Kd was > 4 mM (inactive).
CN1CCN(C(=O)c2ccco2)CC1 was tested, and the Kd was > 4 mM (inactive).
O=C(NCc1ccco1)c1cccc(F)c1 was tested, and the Kd was > 4 mM (inactive).
O=C1c2ccccc2C(=O)c2c(O)c(O)cc(O)c21 was tested, and the Kd was > 4 mM (inactive).
For OCC1COc2ccccc2C1 (stereo not drawn), the Kd was > 4 mM (inactive).
For N/N=C/c1cccnc1, the Kd was > 4 mM (inactive).
With CON(C)C(=O)Nc1ccc(Cl)cc1 the Kd was > 4 mM (inactive).
In the case of O=C(O)c1ccnn1-c1ccccc1, the Kd is reported as > 4 mM (inactive).
In the case of CC(=O)Nc1cnn(Cc2ccc(Br)cc2)c1, the Kd is reported as > 4 mM (inactive).
For O=C(CSc1nnc2ccccn12)N1CCOCC1, the Kd was > 4 mM (inactive).
In the case of CN1CCC(N2CCCC(C(N)=O)C2)CC1 (stereo not drawn), the Kd is reported as > 4 mM (inactive).
CC12CN3CC(C)(CN(C1)C3c1cccs1)C2O (stereo not drawn) was tested, and the Kd was > 4 mM (inactive).
CC(=O)NC(NC(C)=O)c1ccccc1 was tested, and the Kd was > 4 mM (inactive).
In the case of c1ccc2[nH]c(SCc3cscn3)nc2c1, the Kd is reported as > 4 mM (inactive).
For Cc1nc2cc(NC(=O)Nc3nccs3)ccc2n1C, the Kd was > 4 mM (inactive).
In the case of Nc1cc(=O)[nH]c(SCC(=O)Nc2nccs2)n1, the Kd is reported as > 4 mM (inactive).
With CC(=O)c1cnc(Nc2nc(C)c3ccccc3n2)nc1C the Kd was > 4 mM (inactive).
CCCCCCCCCCCC1=C(O)C(=O)C=C(O)C1=O was tested, and the Kd was > 4 mM (inactive).
In the case of CC(=O)Nc1nc(C)nc(-c2ccccc2)c1C(C)=O, the Kd is reported as > 4 mM (inactive).
COc1ccc2c3c([nH]c2c1)C(C)=NCC3 was tested, and the Kd was > 4 mM (inactive).
In the case of COc1cc(OC)c2c(=O)c(O)c(-c3ccc(OC)c(OC)c3)oc2c1, the Kd is reported as > 4 mM (inactive).
With Nc1ccc(Cc2ccc(N)cc2)cc1 the Kd was > 4 mM (inactive).
For Nc1nonc1-c1nc2ccccc2[nH]1, the Kd was > 4 mM (inactive).
With O=C(O[C@@H]1Cc2c(O)cc(O)cc2O[C@@H]1c1cc(O)c(O)c(O)c1)c1cc(O)c(O)c(O)c1 the Kd was > 4 mM (inactive).
CC(CCC(=O)O)[C@H]1CCC2C3CC[C@@H]4C[C@H](O)CC[C@]4(C)C3CC[C@@]21C (stereo partly drawn) was tested, and the Kd was > 4 mM (inactive).
c1cnc(N2CCNCC2)nc1 was tested, and the Kd was > 4 mM (inactive).
With Cc1nn2c3ccccc3nc2n(Cc2ccccc2)c1=O the Kd was > 4 mM (inactive).
In the case of CC(C1OC(C)(C)C(O)C1O)[C@@H]1CC[C@]2(C)C3=CCC4C(C)(C)C(=O)CC[C@]4(C)C3CC[C@@]12C (stereo partly drawn), the Kd is reported as > 4 mM (inactive).
CC(C)(O)CC[C@@H](O)[C@](C)(O)C1CC[C@@]2(O)C3=CC(=O)C4C[C@@H](O)[C@@H](O)C[C@]4(C)C3CC[C@]12C (stereo partly drawn) was tested, and the Kd was > 4 mM (inactive).
CCOC(=O)C1CCN(Cc2ccccc2)CC1=O (stereo not drawn) was tested, and the Kd was > 4 mM (inactive).
Cc1ccc(N2C(=O)C3C4C=CC(O4)C3C2=O)cc1 (stereo not drawn) was tested, and the Kd was > 4 mM (inactive).
In the case of CC(=O)c1c(C)n([O-])c2ccccc2[n+]1=O, the Kd is reported as > 4 mM (inactive).
With CN1CCC(NC(=O)c2cccnc2)CC1 the Kd was > 4 mM (inactive).
For Cc1cc(C(=O)O)n[nH]1, the Kd was > 4 mM (inactive).
With c1ccc(Cc2nnc3sc(-c4ccccn4)nn23)cc1 the Kd was > 4 mM (inactive).
For CC1=C/C(=C\c2c(O)[nH]c(=O)[nH]c2=O)C(C)=N1, the Kd was > 4 mM (inactive).
With NS(=O)(=O)c1ccc(N=Cc2cccs2)cc1 the Kd was > 4 mM (inactive).
For Clc1ccc(SCCn2cncn2)cc1, the Kd was > 4 mM (inactive).
In the case of Cc1cc(C(=O)N2CCN(c3ncccn3)CC2)c(C)o1, the Kd is reported as > 4 mM (inactive).
Cc1nc(-c2ccccc2)ncc1CO was tested, and the Kd was > 4 mM (inactive).
With S=C=NCc1ccccc1 the Kd was > 4 mM (inactive).
In the case of CC(=O)OCC(=O)[C@@]1(O)CCC2C3CC[C@@H]4C[C@H](OC(C)=O)CC[C@]4(C)C3C(=O)C[C@@]21C (stereo partly drawn), the Kd is reported as > 4 mM (inactive).
In the case of O=C(O)C1Cc2ccccc2N1 (stereo not drawn), the Kd is reported as > 4 mM (inactive).
For O=C(O)CCn1cncn1, the Kd was > 4 mM (inactive).
With CN1C(=O)c2ccc(C(=O)NC3CCCCC3)cc2C1=O the Kd was > 4 mM (inactive).
For CCOc1ccc(C(=O)c2ccc(O)c(O)c2O)cc1, the Kd was > 4 mM (inactive).
Cc1occc1C(=O)Nc1sccc1C(N)=O was tested, and the Kd was > 4 mM (inactive).
For O=c1ccc2cc(O[C@@H]3O[C@H](CO)[C@@H](O)[C@H](O)[C@H]3O)c(O)cc2o1, the Kd was > 4 mM (inactive).
OC1CCN(c2nccc(C(F)(F)F)n2)CC1 was tested, and the Kd was > 4 mM (inactive).
For Nc1ccc(-n2cccc2)cc1, the Kd was > 4 mM (inactive).
In the case of CC(=O)NC(C)(C)C1CC=C(C)/C(=N\O)C1 (stereo not drawn), the Kd is reported as > 4 mM (inactive).
For CCC(C)C(=O)O[C@@H]1C[C@@]2(C)[C@H](c3ccoc3)OC(=O)CC23OC2(C)O[C@]14[C@]1(C)[C@@H](CC(=O)OC)C5(C)CC1(O)[C@](O)(C5OC(=O)C1(C)OC1C)[C@@H](OC(C)=O)[C@]34O2 (stereo partly drawn), the Kd was > 4 mM (inactive).
For C[C@@H]1CC[C@@]2(OC1)OC1CC3C4CC=C5C[C@@H](O)CC[C@]5(C)C4CC[C@]3(C)C1[C@@H]2C (stereo partly drawn), the Kd was > 4 mM (inactive).
With CSc1nc(C)cc(-n2ccc(=O)[nH]c2=O)n1 the Kd was > 4 mM (inactive).
In the case of N#CCSc1nc(-c2ccccc2)cs1, the Kd is reported as > 4 mM (inactive).
For O=C(O)c1scc2c1CCCC2, the Kd was > 4 mM (inactive).
For COc1c(C)c2c(c(O)c1C/C=C(\C)CCC(=O)O)C(=O)OC2, the Kd was > 4 mM (inactive).
CC(=O)Cc1nsc(NC(=O)c2ccc(C)cc2)n1 was tested, and the Kd was > 4 mM (inactive).
In the case of Oc1ccc(/C=C/c2cc(O)cc(O)c2)cc1, the Kd is reported as > 4 mM (inactive).
In the case of Cc1cc(=O)[nH]c(N)n1, the Kd is reported as > 4 mM (inactive).
Cc1cc(NS(=O)(=O)Cc2ccccc2)no1 was tested, and the Kd was > 4 mM (inactive).
With O=C(O)C1CSC2(CCCCC2)N1 (stereo not drawn) the Kd was > 4 mM (inactive).
O=C(O)C12CC3CC(CC(O)(C3)C1)C2 was tested, and the Kd was > 4 mM (inactive).
In the case of O=C(O)CCc1c[nH]c2ccccc12, the Kd is reported as > 4 mM (inactive).
With O=c1/c(=C/c2cccs2)sc2ncnn12 the Kd was > 4 mM (inactive).
For CC(=O)OC(C)(C)[C@@H]1Cc2cc3ccc(=O)oc3cc2O1, the Kd was > 4 mM (inactive).
NC(=O)NC(=O)Nc1ccc(Cl)cc1 was tested, and the Kd was > 4 mM (inactive).
With C#CCCCCCCCCCCCc1ccco1 the Kd was > 4 mM (inactive).
In the case of NC(=O)Cn1cnc2ccccc21, the Kd is reported as > 4 mM (inactive).
In the case of Cn1nnc2cc(CN)ccc21, the Kd is reported as > 4 mM (inactive).
CCn1c(-c2c[nH]c3ccccc23)n[nH]c1=S was tested, and the Kd was > 4 mM (inactive).
Cc1ccn(S(=O)(=O)c2ccc(F)cc2)n1 was tested, and the Kd was > 4 mM (inactive).
With CCOC(=O)c1cc(C)n(C)n1 the Kd was > 4 mM (inactive).
With Cn1cc(Cl)c(C(=O)Nc2ccc(F)cc2F)n1 the Kd was > 4 mM (inactive).
For O=C(O)CNCC(O)Cn1c2ccccc2c2ccccc21 (stereo not drawn), the Kd was > 4 mM (inactive).
For O=S1(=O)NC(=NCc2ccccc2)c2ccccc21, the Kd was > 4 mM (inactive).
With CC(=O)OC1CC[C@@]2(C)C(CCC3C2CC[C@]2(C)C(C4=CC(=O)OC4)C(OC(C)=O)CC32O)C1 (stereo partly drawn) the Kd was > 4 mM (inactive).
CCOC(=O)c1c(SC)nc(=O)[nH]c1C was tested, and the Kd was > 4 mM (inactive).
With O=c1[nH]cc(Nc2ccccc2)c(=O)[nH]1 the Kd was > 4 mM (inactive).
For Cc1nnc(NCc2ccc3c(c2)OCO3)[nH]c1=O, the Kd was > 4 mM (inactive).
With COC(=O)[C@@H]1OC(=O)C2OC23[C@@]1(C)CCC1[C@@]2(C)CCC(=O)C(C)(C)C2C[C@@H](OC(C)=O)[C@]13C (stereo partly drawn) the Kd was > 4 mM (inactive).
With Cc1occc1C(=O)N1CCC2(CC1)OCCO2 the Kd was > 4 mM (inactive).
CCNCC(O)c1ccc([N+](=O)[O-])cc1 (stereo not drawn) was tested, and the Kd was > 4 mM (inactive).
Cc1nn2c(nc1=O)SCC2(O)c1ccccc1 (stereo not drawn) was tested, and the Kd was > 4 mM (inactive).
In the case of O=C(NCN1CCOCC1)c1cccnc1, the Kd is reported as > 4 mM (inactive).
